Measurements from publication PMC7221803, “Structure–Activity Relationships and Biological Evaluation of 7-Substituted Harmine Analogs for Human β-Cell Proliferation” (Molecules, 2020).
Several values for one entry are separate records, joined by “and”; a condition that tells them apart may be missing. Identical values can stand only once. Like-named read-outs stand apart in the source and are kept apart here.

Experiments:
DYRK1A = DYRK1A (Homo sapiens, UniProt Q13627); experiment: FRET-based LanthaScreen Eu Kinase Binding Assay for DYRK1A; conditions: for IC50: 10 point LanthaScreen Eu Kinase Binding Assay; for inhibition at 0.3 µM: read-out: % DYRK1A Inhibition 300 nM; for inhibition at 1 µM: read-out: % DYRK1A Inhibition 1000 nM; for fold less potent DYRK1A inhibition as compared to harmine: relative to harmine (27 nM); for DYRK1A inhibition (result in words): in vitro at the concentrations tested (1000 nM and 300 nM)
Method: Compounds were tested for DYRK1A binding activity by a commercial kinase profiling services, Life Technologies which uses the FRET-based LanthaScreen® Eu Kinase Binding Assay. Compounds were screened for DYRK1A activity at concentrations of 1000 nM and 300 nM in duplicates. The IC50 was determined by 10 point LanthaScreen® Eu Kinase Binding Assay in duplicates.

human β-cells = experiment: Human β-cell proliferation assay (Ki67-insulin co-immunolabeling, dispersed human islets); format: cell-based; conditions: for human β-cell proliferation at screening concentration: 10 μM, Ki-67-insulin co-immunolabeling after 4 days, n = 3
Method: Human pancreatic islets were obtained from the NIH/NIDDK-supported Integrated Islet Distribution Program (IIDP) Duarte, CA, USA (https://iidp.coh.org) and studied using protocols that have been published in detail. Briefly, islets were first dispersed with Accutase (Sigma, St. Louis, MO, USA) onto coverslips, and treated with vehicle (0.1% DMSO) or with harmine-related compounds in RPMI1640 complete medium for 96 h. Then the cells were then, fixed with formaldehyde and immunolabeled for insulin and Ki67 as described below. Total insulin-positive cells and cells double positive Ki67 and insulin positive cells were imaged and counted. Islets from 3–5 different adult donors were tested as described in Figure 4. At least 1000 β-cells were counted for human islet donor.

[1] = 1-2b at 30 μM vs harmine at 10 μM
[2] = compound at 1000 nM, duplicates

| inhibition at 0.3 µM (DYRK1A; compound at 300 nM, duplicates) | inhibition at 1 µM (DYRK1A; [2]) | SMILES | other results |
| --- | --- | --- | --- |
| 47% | 78% | COC(=O)CCCOc1ccc2c(c1)[nH]c1c(C)nccc12 [1-2c, 4-(7-Oxy-1-methyl-9-H-b-carbolin)butnoic acid methyl ester] | – |
| 35% | 67% | COC(=O)CCCCOc1ccc2c(c1)[nH]c1c(C)nccc12 [1-2d, 5-(7-Oxy-1-methyl-9-H-b-carbolin)pentanoic acid methyl ester] | – |
| 35% | 61% | Cc1nccc2c1[nH]c1cc(OCCNC(=O)OC(C)(C)C)ccc12 [1-2k, 2-(7-Oxy-1-methyl-9-H-b-carbolin)ethyl tert-butyl carbamate] | – |
| 10% | 30% | Cc1nccc2c1[nH]c1cc(OCC(N)=O)ccc12 [1-3a, 2-(7-Oxy-1-methyl-9-H-b-carbolin)acetamide] | – |
| 32% | 58% | Cc1nccc2c1[nH]c1cc(OCCCC(N)=O)ccc12 [1-3c, 4-(7-Oxy-1-methyl-9-H-b-carbolin)butanamide] | – |
| 6% | 19% | Cc1nccc2c1[nH]c1cc(OCCCC(=O)O)ccc12 [1-4c, 4-(7-Oxy-1-methyl-9-H-b-carbolin)butnoic acid] | – |
| 20% | 44% | Cc1nccc2c1[nH]c1cc(OCCCCC(=O)O)ccc12 [1-4d, 5-(7-Oxy-1-methyl-9-H-b-carbolin)pentanoic acid] | – |
| 12% | 25% | Cc1nccc2c1[nH]c1cc(OCCN)ccc12 [1-5a, 2-(7-Oxy-1-methyl-9-H-b-carbolin)ethylamine hydrochloric acid] | – |
| 24% | 49% | CC(=O)NCCOc1ccc2c(c1)[nH]c1c(C)nccc12 [1-6a, 2-(7-Oxy-1-methyl-9-H-b-carbolin)-2-acetyl-ethylamine] | – |
| 22% | 49% | CC(=O)NCCCOc1ccc2c(c1)[nH]c1c(C)nccc12 [1-6b, 3-(7-Oxy-1-methyl-9-H-b-carbolin) -2-acetyl-propylamine] | – |
| 45% | 69% | CC(=O)NCCCCOc1ccc2c(c1)[nH]c1c(C)nccc12 [1-6c, 4-(7-Oxy-1-methyl-9-H-b-carbolin) -2-acetyl-butylamine] | – |
| 17% | 41% | CC(=O)NCCOCCOc1ccc2c(c1)[nH]c1c(C)nccc12 [1-6d, 2-((7-Oxy-1-methyl-9-H-b-carbolin)ethoxy)-2-acetyl-ethylamine] | – |

Continued, molecule first:

| SMILES | inhibition at 0.3 µM (DYRK1A; compound at 300 nM, duplicates) | inhibition at 1 µM (DYRK1A; [2]) | other results |
| --- | --- | --- | --- |
| COC(=O)COc1ccc2c(c1)[nH]c1c(C)nccc12 [1-2a, 2-(7-Oxy-1-methyl-9-H-b-carbolin)acetic acid methyl ester] | – | – | IC50 (DYRK1A; duplicates): 194 ± 11.7 nM; inhibition at 0.3 µM (DYRK1A): 58%; inhibition at 1 µM (DYRK1A): 85% |
| COC(=O)CCOc1ccc2c(c1)[nH]c1c(C)nccc12 [1-2b, 3-(7-Oxy-1-methyl-9-H-b-carbolin)propionic acid methyl ester] | – | – | human β-cell proliferation at screening concentration (human β-cells): exhibit human β-cell proliferation; human β-cell proliferation relative to harmine (in words) (human β-cells; [1]): half that of harmine; maximal human β-cell proliferation as % that of harmine (human β-cells; [1]): 66%; human β-cell proliferation dose-response (human β-cells; dose-response up to 30 μM, n = 3 human islet donors for each dose): induced proliferation in a dose-dependent manner; IC50 (DYRK1A; duplicates): 89 nM and 89.7 nM; fold less potent DYRK1A inhibition as compared to harmine (DYRK1A): 4 fold and ~ 3 fold |
| COC(=O)CCCCCOc1ccc2c(c1)[nH]c1c(C)nccc12 [1-2e, 6-(7-Oxy-1-methyl-9-H-b-carbolin)hexanoic acid methyl ester] | – | – | IC50 (DYRK1A; duplicates): 134 ± 4.55 nM; inhibition at 0.3 µM (DYRK1A): 56%; inhibition at 1 µM (DYRK1A): 81% |
| Cc1nccc2c1[nH]c1cc(OCCCNC(=O)OC(C)(C)C)ccc12 [1-2l, 3-(7-Oxy-1-methyl-9-H-b-carbolin)propyl tert-butyl carbamate] | 24% | 50% | – |
| Cc1nccc2c1[nH]c1cc(OCCCCNC(=O)OC(C)(C)C)ccc12 [1-2m, 4-(7-Oxy-1-methyl-9-H-b-carbolin)butyl tert-butyl carbamate] | 31% | 58% | – |
| Cc1nccc2c1[nH]c1cc(OCCOCCNC(=O)OC(C)(C)C)ccc12 [1-2n, 2-((7-Oxy-1-methyl-9-H-b-carbolin)ethoxy)ethyl tert-butyl carbamate] | 27% | 48% | – |
| COCCOc1ccc2c(c1)[nH]c1c(C)nccc12 [1-2o, 2-(7-oxy-1-methyl-9-H-b-carbolin)methoxyethyl] | – | – | DYRK1A inhibition (result in words) (DYRK1A): not favorable for the DYRK1A inhibition; inhibition at 0.3 µM (DYRK1A): 23%; inhibition at 1 µM (DYRK1A): 48% |
| CCOCCOc1ccc2c(c1)[nH]c1c(C)nccc12 [1-2p, 3-(7-Oxy-1-methyl-9-H-b-carbolin)ethoxyethyl] | 19% | 37% | DYRK1A inhibition (result in words) (DYRK1A): not favorable for the DYRK1A inhibition |
| Cc1nccc2c1[nH]c1cc(OCCC(N)=O)ccc12 [1-3b, 3-(7-Oxy-1-methyl-9-H-b-carbolin)propionamide] | – | – | human β-cell proliferation at screening concentration (human β-cells): exhibit human β-cell proliferation; IC50 (DYRK1A; duplicates): 91 nM; fold less potent DYRK1A inhibition as compared to harmine (DYRK1A): ~ 3 fold |
| Cc1nccc2c1[nH]c1cc(OCCCCC(N)=O)ccc12 [1-3d, 5-(7-Oxy-1-methyl-9-H-b-carbolin)pentanamide] | 67% | 88% | – |
| Cc1nccc2c1[nH]c1cc(OCCCCCC(N)=O)ccc12 [1-3e, 6-(7-Oxy-1-methyl-9-H-b-carbolin)hexanamide] | 39% | 67% | – |
| Cc1nccc2c1[nH]c1cc(OCC(=O)O)ccc12 [1-4a, 2-(7-Oxy-1-methyl-9-H-b-carbolin)acetic acid] | – | – | inhibition at 0.3 µM (DYRK1A): 3%; inhibition at 1 µM (DYRK1A): 6% |
| Cc1nccc2c1[nH]c1cc(OCCC(=O)O)ccc12 [1-4b, 3-(7-Oxy-1-methyl-9-H-b-carbolin)propionic acid] | – | – | IC50 (DYRK1A; duplicates): 1810 ± 101 nM |
| Cc1nccc2c1[nH]c1cc(OCCCCCC(=O)O)ccc12 [1-4e, 6-(7-Oxy-1-methyl-9-H-b-carbolin)hexanoic acid] | 43% | 74% | – |
| Cc1nccc2c1[nH]c1cc(OCCCN)ccc12 [1-5b, 3-(7-Oxy-1-methyl-9-H-b-carbolin)propylamine hydrochloric acid] | – | – | inhibition at 0.3 µM (DYRK1A): 8%; inhibition at 1 µM (DYRK1A): 28% |
| Cc1nccc2c1[nH]c1cc(OCCCCN)ccc12 [1-5c, 4-(7-Oxy-1-methyl-9-H-b-carbolin)butylamine hydrochloric acid] | 15% | 42% | – |
| Cc1nccc2c1[nH]c1cc(OCCOCCN)ccc12 [1-5d, 2-((7-Oxy-1-methyl-9-H-b-carbolin)ethoxy)ethylamine hydrochloric acid] | 15% | 32% | – |
| Cc1nccc2c1[nH]c1cc(N)ccc12 [1-9, 7-Amino-1-methyl-9H-b-carboline] | – | – | DYRK1A inhibition (result in words) (DYRK1A): completely lost its DYRK1A inhibitory activity; inhibition at 0.3 µM (DYRK1A): 8%; inhibition at 1 µM (DYRK1A): 21% |
| Cc1nccc2c1[nH]c1cc(NC(=O)c3ccccc3)ccc12 [1-11, 7-Benzamide-1-methyl-9H-b-carboline] | 48% | 77% | IC50 (DYRK1A; duplicates): 389 ± 32.6 nM; DYRK1A inhibition (result in words) (DYRK1A): partially recovered |
| Cc1nccc2c1[nH]c1cc(OC(=O)NC(C)C)ccc12 [1-12, 1-Methyl-9H-pyrido[3,4-b]indol-7-yl isopropylcarbamate] | – | – | DYRK1A inhibition (result in words) (DYRK1A): moderately active; inhibition at 0.3 µM (DYRK1A): 42%; inhibition at 1 µM (DYRK1A): 69% |
